We go through two compounds from patent publication US20240059669A1, “COCRYSTAL OF A CDK INHIBITOR” (AURIGENE ONCOLOGY LIMITED, priority 2020, published 2024).

Format in all cases: physicochemical
The nature of series [1]: Equilibrium solubility in various media (shaker water bath, HPLC analysis). Particulars: for Solubility (mg/ml) ± SD: 24 hrs. The method, then:
Equilibrium solubility of compound of formula (I) free base and compound of formula (I) fumarate were measured in various medium. Excess quantities of compound of formula (I) and compound of formula (I) fumarate were added to glass vials containing different medium. These vials were kept for shaking in shaker water bath at appropriate temperature (25° C. for water and 37° C. for buffers) at 200 rpm. The obtained preparations were filtered and analysed by means of HPLC.

A short description of series [2]: Dynamic vapor sorption (DVS) moisture uptake study. The conditions noted are these: at 90% RH, 25° C. The protocol: The moisture uptake study of compound of present invention was performed with a DVS instrument (Q5000SA, TA instruments, New Castle, Delaware, USA) at 25° C. to evaluate the physical stability of compound of present invention against moisture or tendency to adsorb moisture. The instrument consisted of a microbalance housed inside a temperature-controlled chamber. The humidity was controlled via switching valves, which control the flow of a dry gas (nitrogen) through a humidification stage. Instrument was programmed for moisture sorption from 40 to 90% RH in 10% RH steps at 25±0.1° C. using an equilibrium condition. The equilibrium condition was set to <0.01% total mass change within 10 min and with a maximum dwell time of 60 min followed by desorption from 90% RH to 10% RH steps. The equilibrium condition for desorption was set to <0.01% total mass change within 10 min and with a maximum dwell time of 60 min.

The nature of series [3]: Variable temperature X-ray diffraction (VT-XRD) physical stability. The conditions noted are these: 25° C., 40° C. and 60° C.; isothermal hold of 60 min. The text has this:
An Anton Paar temperature-humidity chamber (THC) was used to collect in situ XRPD patterns as a function of humidity. The humidity was generated with an RH-200 manufactured by VTI Inc. and carried by a flow of nitrogen gas. The humidity and temperature was monitored by a HygroClip sensor manufactured by Rotronic located next to the specimen inside the THC. XRPD patterns were collected with a PANalytical X'Pert PRO MPD diffractometer in symmetric Bragg-Brentano reflection geometry. Isothermal hold of 60 min given at specified temperature. Heating rate was kept at 10° C./min. Approximately 200 mg sample used for VT-XRD analysis. Cu Kα radiation was produced using a long, fine-focus source operated at 45 kV and 40 mA. The incident beam was conditioned using a nickel filter, a 0.02-rad Soller slit, a 11.6-mm fixed incident beam mask, a fixed 0.76-mm ½° antiscatter slit, and a fixed 0.38-mm ¼° divergence slit. The diffracted beam was conditioned using a 5-mm antiscatter slit, a 0.04-rad Soller slit. The diffraction patterns were collected using a scanning position-sensitive detector (X'Celerator) located 240 mm from the sample. Data were collected and analyzed using Data Collector software v. 5.5.
VT-XRD analysis confirmed that compound of formula (I)-fumaric acid cocrystal remained stable and no solid form transformation/phase change occurred even at higher temperature conditions. […]

Series [4] is described as follows: Variable humidity X-ray diffraction (VH-XRD) physical stability. The conditions noted are these: 40% RH to 85% RH sorption then desorption to 40% RH, 1 hr at each RH level. The method, then: An Anton Paar TTK 450 stage was used to collect in situ XRPD patterns as a function of temperature. The sample was heated with a resistance heater located directly under the sample holder, and the temperature was monitored with a platinum-100 resistance sensor located in the specimen holder. The heater was powered and controlled by an Anton Paar TCU 100 interfaced with Data Collector. Approximately 200 mg sample used for VH-XRD analysis.
The compound of present invention was exposed to various humidity conditions. The sample, i.e., compound of formula (I) fumarate, was exposed from 40% RH to 85% RH followed by desorption cycle from 85% to 40% RH. The samples were equilibrated for 1 hr at each RH level (both sorption and desorption). […] See, FIG. 6B.

Series [5] is described as follows: 6-month storage stability of solid form (XRPD, particle morphology). The conditions noted are these: 6 months.
Setting [6] is: pH 4.5 Acetate buffer USP, 37° C.
The mark [7] stands for this setting: pH 5.8 Phosphate buffer USP, 37° C.
Where [8] appears, read: pH 6.8 Phosphate buffer USP, 37° C.

Where a name gives a salt, the structure may show the parent alone.

For the compound `CC(C)[C@H](C(=O)Nc1cc(C2CC2)[nH]n1)c1cccc(-c2ccc(NC(=O)/C=C/CN3CCOCC3)nc2)c1` [Formula (I) free base, (S, E)-N-(5-(3-(1-((5-cyclopropyl-1H-pyrazol-3-yl)amino)-3-methyl-1-oxobutan-2-yl)phenyl)pyridin-2-yl)-4-morpholinobut-2-enamide], the “Solubility (mg/ml) ± SD” value was 0.0013 ± 0.0001 mg/mL in series [1] (Purified water, 25° C.); 0.07 ± 0.004 mg/mL in series [1] (setting [6]); 0.002 ± 0.0001 mg/mL in series [1] (setting [7]); 0.0005 ± 0.0002 mg/mL in series [1] (setting [8]). For the same compound, the solubility at 24 h in series [1] (pH 2.8 acid phthalate buffer USP, 37 °C, pH 2.8, aqueous buffer, thermodynamic from solid, pH 2.8 Acid Phthalate buffer USP, 37° C., read-out: Solubility (mg/ml) ± SD) was 0.065 ± 0.004 mg/mL.
For the compound `CC(C)[C@H](C(=O)Nc1cc(C2CC2)[nH]n1)c1cccc(-c2ccc(NC(=O)/C=C/CN3CCOCC3)nc2)c1` [Formula (I) fumarate], the “Solubility (mg/ml) ± SD” value was 0.280 ± 0.004 mg/mL in series [1] (Purified water, 25° C.); 0.114 ± 0.017 mg/mL in series [1] (pH 2.8 Acid Phthalate buffer USP, 37° C.); 0.171 ± 0.001 mg/mL in series [1] (setting [6]); 0.014 ± 0.004 mg/mL in series [1] (setting [7]); 0.014 ± 0.009 mg/mL in series [1] (setting [8]). The “weight/moisture gained (DVS)” value in series [2] is recorded as “About 0.646 % w/w”. In addition, the “physical stability at different temperature conditions (VT-XRD)” value in series [3] is given as “physically stable”. In series [4], the “physical stability at different relative humidity conditions (VH-XRD)” value was “remained physically stable”. Further, the “solid form and particle morphology after storage” value in series [5] (25° C./60% RH) and in series [5] (40° C./75% RH) was “remained unchanged” throughout.
